How the values were obtained:
[1] = test system: STAT5 Y694 phosphorylation; test: Protein electrophoresis and blotting of STAT5 Y694 phosphorylation in Jurkat cells stimulated with human interferon beta; type: cell-based; conditions: for Inhibiting Ratio (0% for vehicle control): 1 hour pretreatment, 20 ng/ml human interferon beta 30 minutes, pSTAT5/GAPDH; for Example of Effect 1: Inhibiting Ability (Protein Electrophoresis and Blotting): observed pSTAT5 bands at 10 μM and 100 μM
Summary of the method: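 Serum-free Jurkat cells pretreated with compound 1 h, then stimulated with 20 ng/ml human interferon beta for 30 min at 37° C. pSTAT5 measured by western blot with chemiluminescence, normalized to GAPDH and expressed as percent of DMSO control.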

[2] = test system: STAT5 Y694 phosphorylation; test: HTRF experiment: STAT5 Y694 phosphorylation in Hela cells stimulated with human interferon beta; type: cell-based; conditions: 2 hours pretreatment, 10 nM human interferon beta 30 minutes
Protocol: Example of Effect 3: HTRF Experiment
Human Interferon 3 (IFN-0) (GenScript, Cat #P01574), STAT5 Y694 phosphorylation detection kit (STAT5 phospho-Y694 kit) (Cisbio; Cat #64AT5PEG).
Hela cells (ATCC American Standard Culture Center, CCL-2) were cultured in a 96-well plate at a density of 3×10^4 cells/well with DMEM medium containing 5% fetal bovine serum and maintained at 37° C. in a humidified incubator with 5% carbon dioxide overnight. On the second day, the original DMEM medium in the 96-well plate was sucked dry, and an equal volume of medium containing different concentrations of compounds (the mother liquor of the compound prepared by dimethyl sulfoxide was diluted in the medium at the required concentration) was added for pretreatment for 2 hours, and then it was placed in an incubator at 37° C. Then human interferon beta with a final concentration of 10 nM was added to stimulate, and it was gently shaken to mix well and then placed in an incubator at 37° C. for 30 minutes.
The medium was removed, an appropriate volume of PBS was added to wash, and then it was sucked dry. Then 40 microliters of 1× Lysis Buffer was added to each well and it was stood for 30 minutes at room temperature (1 ml 1× lysate preparation: 740 μl ddH2O was added to 250 μl 4× lysate and 10 μl Blocking reagent and it was mixed thoroughly). After 30 minutes, the cells were repeatedly blown until the lysis solution was not viscous (avoiding blowing out bubbles) to achieve sufficient lysis.
After overnight incubation, the signals of 665 nm and 620 nm were detected in a multifunctional microplate reader. The calculation formula for the detection of STAT5 Y694 phosphorylation is: Ratio=[(signal 665 nm)/(signal 620 nm)]×10^4. Treatment with dimethyl sulfoxide alone was the baseline control (Ratiobase), and the human interferon β stimulation without addition of the compound was the STAT5 Y694 full phosphorylation activation control (Ratiostimulation), the inhibition rate of STAT5 Y694 phosphorylation of different samples was normalized: Inhibition rate=[1−(RatioExperiment−Ratiobase)/(Ratiostimulation−Ratiobase)]*100.

Structure (SMILES) | Inhibiting Ratio (0% for vehicle control) ([1]; 1 μM) [%] | Inhibiting Ratio (0% for vehicle control) ([1]; 10 μM) [%] | Inhibiting Ratio (0% for vehicle control) ([1]; 100 μM) [%] | Example of Effect 1: Inhibiting Ability (Protein Electrophoresis and Blotting) [1] | Example of Effect 3: Inhibiting Ratio@10 μM (HTRF Experiment) [2] [%]
O=C(Cc1ccc(C(F)(F)F)cc1)N1CCC(n2c(=O)[nH]c3c(C(F)(F)F)cccc32)CC1 [GEN1-001, 4-(trifluoromethyl)-1-(1-(2-(4-(trifluoromethyl)phenyl)acetyl)piperidin-4-yl)-1H-benzo[d]imidazole-2(3H)-one] | 11.0 | 29.2 | 96.8 | + | 3.75
COc1ccc2[nH]c(=O)n(C3CCN(C(=O)Cc4ccc(C(F)(F)F)cc4)CC3)c2c1 [GEN1-011, 6-methoxy-1-(1-(2-(4-(trifluoromethyl)phenyl)acetyl)piperidin-4-yl)-1H-benzo[d]imidazole-2 (3H)-one] |  |  |  | + | 20.49
O=C(Cc1ccc(C(F)(F)F)cc1)N1CCC(n2c(=O)[nH]c3cccc(C(F)(F)F)c32)CC1 [GEN1-013, 7-(trifluoromethyl)-1-(1-(2-(4-(trifluoromethyl)phenyl)acetyl)piperidin-4-yl)-1H-benzo[d]imidazole-2(3H)-one] | 12.4 | 62.6 | 97.0 | + | 20.29
N#Cc1cccc2[nH]c(=O)n(C3CCN(C(=O)Cc4ccc(C(F)(F)F)cc4)CC3)c12 [GEN1-014, 2-oxo-3-(1-(2-(4-(trifluoromethyl)phenyl)acetyl)piperidin-4-yl)-2,3-dihydro-1H-benzo[d]imidazole-4-carbonitrile] | 14.2 | 78.8 | 99.1 | + | 16.12
O=C(Cc1ccc(C(F)(F)F)cc1)N1CCC(n2c(=O)[nH]c3cccc(O)c32)CC1 [GEN1-016, 7-hydroxy-1-(1-(2-(4-(trifluoromethyl)phenyl)acetyl)piperidin-4-yl)-1H-benzo[d]imidazole-2 (3H)-one] |  |  |  | + | 9.50
CC(C)(C)c1ccc(CC(=O)N2CCC(n3c(=O)[nH]c4ccccc43)CC2)cc1 [GEN1-031, 1-(1-(2-(4-(tert-butyl)phenyl)acetyl)piperidin-4-yl)-1H-benzo[d]imidazole-2(3H)-one] | 19.7 | 38.1 | 98.7 | + | 0.13
O=C(Cc1ccc(C(F)(F)F)cc1)N1CCC2(CC1)C(=O)NCN2c1ccccc1 [GEN1-049, 1-phenyl-8-(2-(4-(trifluoromethyl)phenyl)acetyl)-1,3,8triazaspiro[4.5]decane-4-one] |  |  |  | − | 18.33
O=C(Cc1ccc(C(F)(F)F)cc1)N1CCC(n2c(=S)[nH]c3ccccc32)CC1 [GEN1-050, 1-(4-(2-thioxo-2,3-dihydro-1H-benzo[d]imidazol-1-yl)piperidin-1-yl)-2-(4-(trifluoromethyl)phenyl)ethanone] |  |  |  | + | 15.28
O=C1CN(C2CCN(C(=O)Cc3ccc(C(F)(F)F)cc3)CC2)c2ccccc2N1 [GEN1-052, 4-(1-(2-(4-(trifluoromethyl)phenyl)acetyl)piperidin-4-yl)-3,4-dihydroquinoxaline-2(1H)-one] |  |  |  | + | 8.83
Nc1nc2ccccc2n1C1CCN(C(=O)Cc2ccc(C(F)(F)F)cc2)CC1 [GEN1-055, 1-(4-(2-amino-1H-benzo[d]imidazol-1-yl)piperidin-1-yl)-2-(4-(trifluoromethyl)phenyl)ethanone] | 25.0 | 50.0 | 89.6 | + | 16.88
CC(=O)Nc1ccccc1NC1CCN(C(=O)Cc2ccc(C(F)(F)F)cc2)CC1 [GEN1-057, N-(2-((1-(2-(4-(trifluoromethyl)phenyl)acetyl)piperidin-4-yl)amino)phenyl)acetamide] |  |  |  | ++ | 66.22
O=C(Cc1ccc(C(F)(F)F)cc1)N1CCC(N2C(=O)NCc3cccc(C(F)(F)F)c32)CC1 [GEN1-265, 8-(trifluoromethyl)-1-(1-(2-(4-(trifluoromethyl)phenyl)acetyl)piperidin-4-yl)-3,4-dihydroquinazolin-2(1H)-one] |  |  |  |  | 16.47
O=C(C[C@H]1CC[C@H](C(F)(F)F)CC1)N1CCC(n2c(=O)[nH]c3cccc(C(F)(F)F)c32)CC1 [GEN1-268, 7-(trifluoromethyl)-1-(1-(2-((1R,4R)-4-(trifluoromethyl)cyclohexyl)acetyl)piperidin-4-yl)-1H-benzo[d]imidazol-2(3H)-one] |  |  |  |  | 58.21
COc1cccc(CC(=O)N2CCC(n3c(=O)[nH]c4ccccc43)CC2)c1 [GEN1-270] |  |  |  |  | 21.10
COc1ccccc1CC(=O)N1CCC(n2c(=O)[nH]c3ccccc32)CC1 [GEN1-271] |  |  |  |  | 9.33
O=C(Cc1ccc2c(c1)CCCN2)N1CCC(n2c(=O)[nH]c3cccc(C(F)(F)F)c32)CC1 [GEN1-276, 1-(1-(2-(1,2,3,4-tetrahydroquinolin-6-yl)acetyl)piperidin-4-yl)-7-(trifluoromethyl)-1,3-dihydro-2H-benzo[d]imidazol-2-one] |  |  |  |  | 55.48
O=C(Cc1ccc(C(F)(F)F)cc1)N1CCC(n2c(=O)[nH]c3ccc(-c4ccccc4)c(C(F)(F)F)c32)CC1 [GEN1-277, 6-phenyl-7-(trifluoromethyl)-1-(1-(2-(4-(trifluoromethyl)phenyl)acetyl)piperidin-4-yl)-1H-benzo[d]imidazol-2(3H)-one] |  |  |  |  | 6.52
COc1cc(CC(=O)N2CCC(n3c(=O)[nH]c4cccc(C(F)(F)F)c43)CC2)ccc1Cl [GEN1-278, 1-(1-(2-(4-chloro-3-methoxyphenyl)acetyl)piperidin-4-yl)-7-(trifluoromethyl)-1,3-dihydro-2H-benzo[d]imidazol-2-one] |  |  |  |  | 73.74
O=C(Cc1ccc(Cl)c(OC(F)(F)F)c1)N1CCC(n2c(=O)[nH]c3cccc(C(F)(F)F)c32)CC1 [GEN1-280, 1-(1-(2-(4-chloro-3-(trifluoromethoxy)phenyl)acetyl)piperidin-4-yl)-7-(trifluoromethyl)-1,3-dihydro-2H-benzo[d]imidazol-2-one] |  |  |  |  | 20.53
O=C(Cc1ccc(C(F)(F)F)cc1)N1CCC(n2c(=O)[nH]c3cccc(Cl)c32)CC1 [GEN1-281] |  |  |  |  | 50.87
Cc1cccc2[nH]c(=O)n(C3CCN(C(=O)Cc4ccc(C(F)(F)F)cc4)CC3)c12 [GEN1-282] |  |  |  |  | 49.93
CCOc1cccc(CC(=O)N2CCC(n3c(=O)[nH]c4ccccc43)CC2)c1 [GEN1-287] |  |  |  |  | 8.72
O=C(Cc1ccc(C(F)(F)F)cc1)N1CCC(n2c(=O)[nH]c3cccc(F)c32)CC1 [GEN1-289] |  |  |  |  | 6.86
O=C(Cc1ccc(C(F)(F)F)cc1)N1CCC(n2c(=O)[nH]c3cccc(Br)c32)CC1 [GEN1-290] |  |  |  |  | 57.51
O=C(Cc1ccc2ncccc2c1)N1CCC(n2c(=O)[nH]c3cccc(Cl)c32)CC1 [GEN1-291] |  |  |  |  | 70.98
Cc1cccc2[nH]c(=O)n(C3CCN(C(=O)Cc4ccc5ncccc5c4)CC3)c12 [GEN1-292, 7-methyl-1-(1-(2-(quinolin-6-yl)acetyl)piperidin-4-yl)-1,3-dihydro-2H-benzo[d]imidazol-2-one] |  |  |  |  | 59.63
O=C(Cc1ccc2ncccc2c1)N1CCC(n2c(=O)[nH]c3cc(Cl)ccc32)CC1 [GEN1-294] |  |  |  |  | 1.85
